Reference: the supplement of paper PMC10307832

Key:
Experiment in all cases: relative viability (nuclei count vs DMSO), 5 days (fraction); higher = more cells survive
[1] = system: LXF-289
Outline: (§1)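 For relative viability, nuclei counts in treated wells were divided by those in vehicle wells. Lung cancer cell lines had been pin-tool dosed in 1536-well plates the day after seeding and cultured for 5 days, then fixed and stained in one step (final 0.05% Triton X-100, 1% formaldehyde, 1 ug/ml Hoechst) and imaged at 4×. Doses were one drug alone or a fixed anchor-drug dose plus five library-drug doses (not always all listed) in √10 steps, and values are duplicate-plate medians.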

[2] = system: NCI-H2170
Outline: as §1

[3] = system: COR-L 105
Outline: as §1

[4] = system: HCC-78
Outline: as §1

[5] = system: UMC-11
Outline: as §1

[6] = system: NCI-H1944
Outline: as §1

[7] = system: NCI-H2085
Outline: as §1

[8] = system: SK-LU-1
Outline: as §1

[9] = system: EPLC-272H
Outline: as §1

[10] = system: NCI-H1793
Outline: as §1

[11] = system: HCC-366
Outline: as §1

[12] = system: HOP-62
Outline: as §1

[13] = system: NCI-H358
Outline: as §1

[14] = system: NCI-H1666
Outline: as §1

[15] = system: LU99A
Outline: as §1

[16] = system: NCI-H1915
Outline: as §1

[17] = system: LC-2-ad
Outline: as §1

[18] = system: NCI-H1792
Outline: as §1

[19] = system: NCI-H2009
Outline: as §1

[20] = system: NCI-H460
Outline: as §1

[21] = system: SW 900
Outline: as §1

[22] = system: A-427
Outline: as §1

COc1cc2nccc(Oc3ccc(NC(=O)Nc4cc(C)on4)c(Cl)c3)c2cc1OC [Tivozanib] + O=C(c1cc(Cc2n[nH]c(=O)c3ccccc23)ccc1F)N1CCN(C(=O)C2CC2)CC1 [Olaparib] (partner 8 µM)
relative viability ([1]; first compound 0.005 µM): 0.984 | relative viability ([1]; first compound 0.01581 µM): 0.994 | relative viability ([1]; first compound 0.05 µM): 1.09 | relative viability ([1]; first compound 0.1581 µM): 1.13 | relative viability ([1]; first compound 0.5 µM): 0.99 | relative viability ([2]; first compound 0.005 µM): 0.484 | relative viability ([2]; first compound 0.01581 µM): 0.596 | relative viability ([2]; first compound 0.05 µM): 0.642 | relative viability ([2]; first compound 0.5 µM): 0.523 | relative viability ([3]; first compound 0.005 µM): 0.629 | relative viability ([3]; first compound 0.01581 µM): 0.558 | relative viability ([3]; first compound 0.05 µM): 0.773 | relative viability ([3]; first compound 0.1581 µM): 0.713 | relative viability ([3]; first compound 0.5 µM): 0.705 | relative viability ([4]; first compound 0.005 µM): 0.796 | relative viability ([4]; first compound 0.01581 µM): 0.746 | relative viability ([4]; first compound 0.05 µM): 0.732 | relative viability ([4]; first compound 0.1581 µM): 0.872 | relative viability ([4]; first compound 0.5 µM): 0.581 | relative viability ([5]; first compound 0.005 µM): 0.373 | relative viability ([5]; first compound 0.01581 µM): 0.393 | relative viability ([5]; first compound 0.05 µM): 0.456 | relative viability ([5]; first compound 0.1581 µM): 0.33 | relative viability ([5]; first compound 0.5 µM): 0.415 | relative viability ([6]; first compound 0.005 µM): 0.331 | relative viability ([6]; first compound 0.01581 µM): 0.395 | relative viability ([6]; first compound 0.05 µM): 0.416 | relative viability ([6]; first compound 0.1581 µM): 0.406 | relative viability ([6]; first compound 0.5 µM): 0.376 | relative viability ([7]; first compound 0.005 µM): 0.712 | relative viability ([7]; first compound 0.01581 µM): 0.848 | relative viability ([7]; first compound 0.05 µM): 0.876 | relative viability ([7]; first compound 0.1581 µM): 0.946 | relative viability ([7]; first compound 0.5 µM): 0.734 | relative viability ([8]; first compound 0.005 µM): 0.465 | relative viability ([8]; first compound 0.01581 µM): 0.474 | relative viability ([8]; first compound 0.05 µM): 0.528 | relative viability ([8]; first compound 0.1581 µM): 0.384 | relative viability ([8]; first compound 0.5 µM): 0.464 | relative viability ([9]; first compound 0.005 µM): 0.63 | relative viability ([9]; first compound 0.01581 µM): 0.969 | relative viability ([9]; first compound 0.05 µM): 0.741 | relative viability ([9]; first compound 0.1581 µM): 0.783 | relative viability ([9]; first compound 0.5 µM): 0.659 | relative viability ([10]; first compound 0.005 µM): 0.804 | relative viability ([10]; first compound 0.01581 µM): 0.971 | relative viability ([10]; first compound 0.05 µM): 1.03 | relative viability ([10]; first compound 0.5 µM): 0.879 | relative viability ([11]; first compound 0.005 µM): 0.367 | relative viability ([11]; first compound 0.01581 µM): 0.365 | relative viability ([11]; first compound 0.05 µM): 0.37 | relative viability ([11]; first compound 0.1581 µM): 0.363 | relative viability ([11]; first compound 0.5 µM): 0.352 | relative viability ([12]; first compound 0.005 µM): 0.472 | relative viability ([12]; first compound 0.01581 µM): 0.405 | relative viability ([12]; first compound 0.05 µM): 0.324 | relative viability ([12]; first compound 0.1581 µM): 0.537 | relative viability ([12]; first compound 0.5 µM): 0.37 | relative viability ([13]; first compound 0.005 µM): 0.522 | relative viability ([13]; first compound 0.01581 µM): 0.612 | relative viability ([13]; first compound 0.05 µM): 0.583 | relative viability ([13]; first compound 0.1581 µM): 0.61 | relative viability ([13]; first compound 0.5 µM): 0.542 | relative viability ([14]; first compound 0.005 µM): 0.777 | relative viability ([14]; first compound 0.01581 µM): 0.713 | relative viability ([14]; first compound 0.05 µM): 0.739 | relative viability ([14]; first compound 0.1581 µM): 0.802 | relative viability ([14]; first compound 0.5 µM): 0.719 | relative viability ([15]; first compound 0.005 µM): 0.275 | relative viability ([15]; first compound 0.01581 µM): 0.247 | relative viability ([15]; first compound 0.05 µM): 0.271 | relative viability ([15]; first compound 0.1581 µM): 0.231 | relative viability ([15]; first compound 0.5 µM): 0.27 | relative viability ([16]; first compound 0.005 µM): 0.255 | relative viability ([16]; first compound 0.01581 µM): 0.279 | relative viability ([16]; first compound 0.05 µM): 0.286 | relative viability ([16]; first compound 0.1581 µM): 0.291 | relative viability ([16]; first compound 0.5 µM): 0.206 | relative viability ([17]; first compound 0.005 µM): 0.768 | relative viability ([17]; first compound 0.01581 µM): 0.793 | relative viability ([17]; first compound 0.05 µM): 0.787 | relative viability ([17]; first compound 0.1581 µM): 0.794 | relative viability ([17]; first compound 0.5 µM): 0.729 | relative viability ([18]; first compound 0.005 µM): 0.313 | relative viability ([18]; first compound 0.01581 µM): 0.46 | relative viability ([18]; first compound 0.05 µM): 0.516 | relative viability ([18]; first compound 0.5 µM): 0.294 | relative viability ([19]; first compound 0.005 µM): 0.655 | relative viability ([19]; first compound 0.01581 µM): 0.703 | relative viability ([19]; first compound 0.05 µM): 0.751 | relative viability ([19]; first compound 0.1581 µM): 0.714 | relative viability ([19]; first compound 0.5 µM): 0.542 | relative viability ([20]; first compound 0.005 µM): 0.377 | relative viability ([20]; first compound 0.01581 µM): 0.469 | relative viability ([20]; first compound 0.05 µM): 0.496 | relative viability ([20]; first compound 0.1581 µM): 0.393 | relative viability ([20]; first compound 0.5 µM): 0.356 | relative viability ([21]; first compound 0.005 µM): 0.779 | relative viability ([21]; first compound 0.01581 µM): 0.817 | relative viability ([21]; first compound 0.05 µM): 0.776 | relative viability ([21]; first compound 0.5 µM): 0.855 | relative viability ([22]; first compound 0.005 µM): 0.667 | relative viability ([22]; first compound 0.01581 µM): 0.747 | relative viability ([22]; first compound 0.05 µM): 0.774 | relative viability ([22]; first compound 0.1581 µM): 0.709 | relative viability ([22]; first compound 0.5 µM): 0.737
